Here are results for 23 compounds from ChEMBL document CHEMBL4041499, “Synthesis and evaluation of 7-substituted coumarin derivatives as multimodal monoamine oxidase-B and cholinesterase inhibitors for the treatment of Alzheimer's disease” (Eur J Med Chem, 2017).

Assay [1] deals with Acetylcholinesterase (Electrophorus electricus, UniProt O42275).
The target in assay [2] is Cholinesterase (Equus caballus, UniProt P81908).
The target in assay [3] is T1, Amine oxidase [flavin-containing] A (Homo sapiens, UniProt P21397).
T1 sequence (P21397 whole entry): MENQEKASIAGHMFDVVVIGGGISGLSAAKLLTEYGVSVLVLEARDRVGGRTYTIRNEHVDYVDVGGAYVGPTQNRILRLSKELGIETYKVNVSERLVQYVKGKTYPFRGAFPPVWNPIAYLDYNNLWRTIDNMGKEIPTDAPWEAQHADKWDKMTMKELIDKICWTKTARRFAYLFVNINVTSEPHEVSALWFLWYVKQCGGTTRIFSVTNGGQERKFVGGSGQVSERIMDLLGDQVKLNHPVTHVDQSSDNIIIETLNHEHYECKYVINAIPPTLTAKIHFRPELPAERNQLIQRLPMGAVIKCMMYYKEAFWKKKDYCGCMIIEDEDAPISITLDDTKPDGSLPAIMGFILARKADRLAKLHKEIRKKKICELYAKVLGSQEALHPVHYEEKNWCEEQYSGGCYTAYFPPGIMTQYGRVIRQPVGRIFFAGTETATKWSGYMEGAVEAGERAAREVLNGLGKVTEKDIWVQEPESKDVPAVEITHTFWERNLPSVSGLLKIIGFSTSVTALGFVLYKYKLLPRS
The class given is ADME.
Description: Inhibition of recombinant human MAO-A assessed as reduction in 4-hydroxyquinolone production using kynuramine as substrate after 20 mins by fluorescence assay

Acetylcholinesterase, sequence (O42275 whole entry): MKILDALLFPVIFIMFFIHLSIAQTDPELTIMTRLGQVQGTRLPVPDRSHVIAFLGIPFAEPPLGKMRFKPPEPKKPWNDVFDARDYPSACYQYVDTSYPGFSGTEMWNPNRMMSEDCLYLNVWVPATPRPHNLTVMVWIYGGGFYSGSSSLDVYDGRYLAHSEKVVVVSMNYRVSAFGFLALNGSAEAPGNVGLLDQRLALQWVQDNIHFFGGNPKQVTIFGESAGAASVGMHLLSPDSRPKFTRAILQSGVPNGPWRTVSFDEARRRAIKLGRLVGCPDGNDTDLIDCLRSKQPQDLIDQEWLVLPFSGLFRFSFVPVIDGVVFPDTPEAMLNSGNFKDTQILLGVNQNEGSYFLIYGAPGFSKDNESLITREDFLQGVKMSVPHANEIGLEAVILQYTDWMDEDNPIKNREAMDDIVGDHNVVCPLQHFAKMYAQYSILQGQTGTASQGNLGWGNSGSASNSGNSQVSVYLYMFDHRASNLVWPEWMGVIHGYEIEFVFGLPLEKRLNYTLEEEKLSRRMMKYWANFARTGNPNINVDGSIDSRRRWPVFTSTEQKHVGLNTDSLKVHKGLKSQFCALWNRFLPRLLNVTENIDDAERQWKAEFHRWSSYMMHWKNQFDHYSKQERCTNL
Cholinesterase, sequence (P81908 whole entry): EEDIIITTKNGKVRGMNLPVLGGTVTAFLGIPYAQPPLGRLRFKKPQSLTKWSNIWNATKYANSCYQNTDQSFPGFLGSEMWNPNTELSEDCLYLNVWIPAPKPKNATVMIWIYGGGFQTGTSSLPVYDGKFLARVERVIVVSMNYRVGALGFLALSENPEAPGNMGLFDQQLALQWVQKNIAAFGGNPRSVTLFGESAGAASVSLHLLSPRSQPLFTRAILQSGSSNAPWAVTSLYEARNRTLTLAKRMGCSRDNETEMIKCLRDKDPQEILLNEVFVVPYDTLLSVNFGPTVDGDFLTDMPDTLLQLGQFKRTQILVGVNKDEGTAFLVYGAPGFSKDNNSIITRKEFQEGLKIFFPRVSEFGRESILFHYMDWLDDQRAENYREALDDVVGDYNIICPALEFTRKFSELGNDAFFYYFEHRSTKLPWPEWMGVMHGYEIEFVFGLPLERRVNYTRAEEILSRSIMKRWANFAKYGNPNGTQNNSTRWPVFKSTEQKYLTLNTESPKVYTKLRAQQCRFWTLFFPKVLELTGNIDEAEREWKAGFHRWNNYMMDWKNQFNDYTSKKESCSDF

In the case of `Cc1c(C#N)c(=O)oc2cc(OCc3ccc(Cl)cc3)ccc12`, the IC50 in assay [1] and in assay [2] was > 100 µM each time.

On to `O=c1cc(C(F)(F)F)c2ccc(OCCN3CCN(Cc4ccc(Br)cc4)CC3)cc2o1`, for which the values for the IC50 in assay [3], in assay [1] and in assay [2] were > 10 µM, > 100 µM and > 100 µM, respectively.

Consider `O=c1ccc2ccc(OCCN3CCCCC3)cc2o1`, for which the midpoint of inhibition in assay [1], the IC50, lay at 54.9 µM.

`O=c1ccc2ccc(OCCN3CCN(Cc4ccc(Br)cc4)CC3)cc2o1`: the IC50 in assay [3] was > 10 µM; in assay [1], > 100 µM; in assay [2], 50.1 µM.

Turning to `Cc1c(Cl)c(=O)oc2cc(OCCN3CCC(Cc4ccccc4)CC3)ccc12`, the IC50 was > 10 µM in assay [3], 31.3 µM in assay [1] and 1.27 µM in assay [2].

For the compound `O=c1ccc2ccc(OCc3ccc(Br)cc3)cc2o1`, the IC50 in assay [1] and in assay [2] was > 100 µM each time.

Turning to `Cc1c(C#N)c(=O)oc2cc(OCc3ccc(Br)cc3Br)ccc12`, the IC50 in assay [3] is 0.72 µM; in assay [1], > 100 µM; in assay [2], > 100 µM.

Take `O=c1ccc2ccc(OCCN3CCC(Cc4ccccc4)CC3)cc2o1`: the results for the IC50 in assay [3], in assay [1] and in assay [2] were > 10 µM, 36.7 µM and 20.3 µM, respectively.

As to `Cc1c(Cl)c(=O)oc2cc(OCc3ccc(Br)cc3)ccc12`, the IC50 in assay [1] and in assay [2] was > 100 µM in each case.

Regarding `Cc1c(C#N)c(=O)oc2cc(OCc3ccc(F)cc3)ccc12`, the IC50 in assay [1] and in assay [2] was > 100 µM each time.

As to `Cc1cc(=O)oc2cc(OCCN3CCN(Cc4ccc(Br)cc4)CC3)ccc12`, the IC50 is > 10 µM in assay [3], 12.8 µM in assay [1] and 9.7 µM in assay [2].

Regarding `O=c1cc(C(F)(F)F)c2ccc(OCc3ccc(Br)cc3)cc2o1`, the IC50 in assay [3] is > 10 µM; in assay [1], > 100 µM; in assay [2], > 100 µM.

Regarding `Cc1c(C#N)c(=O)oc2cc(OCCN3CCC(Cc4ccccc4)CC3)ccc12`, the results for the IC50 in assay [3], in assay [1] and in assay [2] were > 10 µM, 9.1 µM and 5.9 µM, respectively.

With `Cc1c(C#N)c(=O)oc2cc(OCCN3CCN(Cc4ccc(Br)cc4)CC3)ccc12`, the IC50 is > 10 µM in assay [3], 38.5 µM in assay [1] and 13.3 µM in assay [2].

Turning to `Cc1c(C#N)c(=O)oc2cc(OCc3ccccc3Br)ccc12`, the IC50 in assay [3] is > 10 µM; in assay [1] it was > 100 µM; in assay [2], > 100 µM.

Turning to `Cc1cc(=O)oc2cc(OCCN3CCCCC3)ccc12`, the IC50 in assay [1] came out at 66.4 µM.

Turning to `O=c1cc(C(F)(F)F)c2ccc(OCCN3CCC(Cc4ccccc4)CC3)cc2o1`, the values for the IC50 in assay [3], in assay [1] and in assay [2] were > 10 µM, > 100 µM and > 100 µM, respectively.

`Cc1c(Cl)c(=O)oc2cc(OCc3ccccc3)ccc12`: the IC50 in assay [3] is 2.13 µM; in assay [1] it was > 100 µM; in assay [2], 0.96 µM.

As to `Cc1c(C#N)c(=O)oc2cc(OCc3ccccc3)ccc12`, the IC50 in assay [3] is 1.38 µM; in assay [1], > 100 µM; in assay [2], 21.8 µM.

Turning to `Cc1cc(=O)oc2cc(OCCN3CCC(Cc4ccccc4)CC3)ccc12`, the results for the IC50 in assay [3], in assay [1] and in assay [2] were > 10 µM, 29.4 µM and 5.19 µM, respectively.

As for `Cc1cc(=O)oc2cc(OCc3ccc(Br)cc3)ccc12`, the half-maximal inhibitory concentration (IC50) was 0.05 µM in assay [3], > 100 µM in assay [1] and > 100 µM in assay [2].

For `Cc1c(Cl)c(=O)oc2cc(OCCN3CCN(Cc4ccc(Br)cc4)CC3)ccc12`, the IC50 is > 10 µM in assay [3], > 100 µM in assay [1] and 3.12 µM in assay [2].

For the compound `Cc1c(C#N)c(=O)oc2cc(OCc3ccc(Br)cc3)ccc12`, the IC50 in assay [1] and in assay [2] was > 100 µM in each case.

A word on the IC50: it is the concentration that gives 50% inhibition. Low values mean greater potency, high ones weaker potency.
